Values quoted from earlier work as cited in US9974722B2, “Reduced-ethanol mouth rinse formulations” (Johnson & Johnson Consumer Inc., priority 2016, dated 2018).

solubility in alcohol: only slightly soluble
Compound: CC1CCC(C(C)C)C(O)C1 (stereo not shown) [Menthol]
